Assay in all cases: growth of human tumour cells (NCI), 48 h
Assay [1] relates to HS 578T breast.
Assay [2] has as its system M14 melanoma.
The test system of assay [3] is UACC-257 melanoma.
Assay [4] relates to ACHN renal.
Assay [5] concerns NCI-H460 lung.
Assay [6] deals with SN12C renal.
Assay [7] deals with MOLT-4 leukemia.
In assay [8] the test system is SK-MEL-5 melanoma.
Assay [9] concerns SNB-19 CNS.
Assay [10] deals with U251 CNS.

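How tested: cells in 96-well plates exposed to compound for 48 hours at five concentrations. GI50 marks 50% less growth. TGI: total growth inhibition.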

Regarding `COc1cccc(-n2ncc3c(N/N=C/c4ccc(S(C)(=O)=O)cc4)ncnc32)c1`, the GI50 in assay [1] is 0.608 µM; in [2], 5.74 µM; in assay [3] it was above 18 µM; in [4], 6.27 µM; in assay [5] it was 6.56 µM; in [6], 9.88 µM. The GI50 in assay [7] was above 25 µM; in assay [8], 3.45 µM; in assay [9] it was 11.5 µM; in [10], 4.99 µM. In addition, the TGI in assay [1] was 7.34 µM; in assay [2], above 25 µM; in assay [3], above 25 µM; in assay [4] it was above 25 µM; in assay [5], above 25 µM; in [6] it was above 25 µM. Further, the TGI in [7] is above 25 µM; in [8], above 15.8 µM; in assay [9] it was above 25 µM; in assay [10], 17.6 µM.
As to `COc1ccc2c(c1)sc1nc(-c3ccccc3)c(-c3ccc(O)c(OC)c3)n12`, the GI50 is above 100 µM in assay [1]; 4.34 µM in assay [2]; above 100 µM in assay [3]; 38.9 µM in assay [4]; 6.51 µM in assay [5]; 80.4 µM in assay [6]. In addition, the GI50 in assay [7] is 12.8 µM; in [8], 3.64 µM; in assay [9], 32.5 µM; in assay [10] it was 5.28 µM. The TGI in assay [1], in assay [2], in assay [3], in assay [4], in assay [5] and in [6] was above 100 µM in each case. For the same compound, the TGI in assay [7], in assay [8], in assay [9] and in [10] was above 100 µM in each case.
As for `CN(C)C(=O)c1cc2cnc(Nc3ccc(-c4csc5c(=O)cc(N6CCNCC6)oc45)cc3)nc2n1C1CCCC1`, the GI50 in assay [1] is 0.943 µM; in assay [2], 0.99 µM; in assay [3], 5.28 µM; in assay [4] it was 1.78 µM; in assay [5], 0.814 µM; in [6], 0.557 µM. In addition, the GI50 was 0.368 µM in [7], 1.18 µM in [8], 0.551 µM in [9] and 0.561 µM in assay [10]. Also, the TGI in assay [1] amounted to 4.39 µM; in assay [2], 2.59 µM; in assay [3] it was 22.9 µM; in assay [4] it was 5.51 µM; in [5] it was 2.35 µM; in assay [6] it was 16.8 µM. The TGI was determined as 2.11 µM in assay [7], 2.51 µM in assay [8], 2.62 µM in assay [9] and 1.96 µM in [10].
On to `Cc1cc2c3ccccc3ccc2[n+]2ccccc12`, for which the GI50 in assay [1] was 2.6 µM; in assay [2] it was 6.53 µM; in assay [3], 6.17 µM; in assay [4], 29.4 µM; in assay [5], 8.81 µM; in assay [6] it was 1.4 µM. Besides, the GI50 in assay [7] is 4.64 µM; in [8], 1.63 µM; in assay [9] it was 2.11 µM; in [10], 1.06 µM. Besides, the TGI in [1] is 17.2 µM; in assay [2] it was 22.8 µM; in assay [3], 27.5 µM; in assay [4], above 100 µM; in assay [5] it was 28.1 µM; in [6], 7.29 µM. Besides, the TGI stood at 28.2 µM in assay [7], 3.78 µM in assay [8], 8.72 µM in assay [9] and 10.1 µM in assay [10].
For the compound `CC1(O)CC2(O)C=CC3=C(C(=O)c4cccc(O)c4C3=O)C2(O)C(=O)C1O` (stereo not given), the TGI in assay [1] worked out at 10.7 µM; in assay [2], 2.74 µM; in assay [3] it was 2.67 µM; in assay [4], 3.1 µM; in assay [5], 34.3 µM; in [6] it was 6.66 µM. In addition, the TGI was 2.8 µM in [7], 7.58 µM in [8], 30.4 µM in [9] and 9.81 µM in [10].
On to `COC(=O)c1ccc2c(c1)C(=O)c1c-2n(CCCN)c(=O)c2cc([N+](=O)[O-])ccc12`, for which the GI50 in assay [1] was 0.422 µM; in assay [2] it was below 0.0222 µM; in assay [3] it was 0.234 µM; in [4], below 0.01 µM; in assay [5], 0.0434 µM; in assay [6] it was below 0.0233 µM. Moreover, the GI50 in [7] was below 0.01 µM; in assay [8], below 0.0405 µM; in assay [9] it was below 0.0205 µM; in [10] it was below 0.0127 µM. The TGI in [1] was found to be 1.15 µM; in assay [2], 0.46 µM; in [3], 1.23 µM; in assay [4], 0.204 µM; in [5], 1.1 µM; in assay [6], 1.36 µM. Also, the TGI in assay [7] amounted to 0.833 µM; in assay [8], 0.8 µM; in [9] it was 1.87 µM; in assay [10] it was 0.368 µM.
Regarding `CC(=O)OC1CCC2(C)C(CCC3C4CC=C(C(C)=O)C4(C)OC(=O)CC32)C1` (stereo not given), the GI50 in assay [1] was 3.79 µM; in assay [2] it was 1.71 µM; in [3], 1.42 µM; in [4] it was 1.3 µM; in assay [5], 5.02 µM; in assay [6] it was 3.26 µM. The GI50 in [7] is 2.29 µM; in assay [8], 2.13 µM; in assay [9], 13.3 µM; in [10], 10.1 µM. Also, the TGI was determined as 29.8 µM in assay [1]; 3.51 µM in assay [2]; 2.98 µM in [3]; 2.61 µM in assay [4]; 19.3 µM in [5]; 13.6 µM in assay [6]. Besides, the TGI in [7] came out at 6.41 µM; in assay [8] it was 4.95 µM; in assay [9] it was 27.9 µM; in [10], 21.8 µM.
